Assay results taken from patent publication US9557338B2 (SIGNAL PHARMACEUTICALS, LLC, priority 2012, dated 2017).
Where two headings read alike, the source gives them in different places.

Tests used:
Assay type in all cases: cell-based
[1] = test system: Phospho-PRAS40(T246); experiment: Luminex multiplex assay, Phospho-PRAS40(T246)
Text: (§1) Determination of Phospho-GSK3β(S9), Phospho-PRAS40(T246) and Phospho-4E-BP1(T46) and the Effect of Compound 1 or Rapamycin.
(§2) The multiplex Luminex assay format differs from conventional enzyme-linked immunosorbent assay (ELISA) in that the multiplex capture antibody is attached to a polystyrene bead whereas the ELISA capture antibody is attached to the microplate well. The use of the suspension bead-based technology enables the multiplexing capabilities of the Luminex assays. The xMAP® technology uses 5.6 micron polystyrene microspheres, which are internally dyed with red and infrared fluorophores of differing intensities. Each bead is given a unique number, or bead region, allowing differentiation of one bead from another. Beads covalently bound to different specific antibodies can be mixed in the same assay, utilizing a 96-well microplate format. At the completion of the sandwich immunoassay, beads can be read, using the Luminex 100™ or Luminex 200 detection system, in single-file by dual lasers for classification and quantification of each analyte. The Akt-Pathway Phospho 5-plex kit used was custom made and includes the ability to simultaneously measure p-GSK3β (S9), p-PRAS40(T246), and p-4E-BP1(T46).
(§3) Cells were plated at the required density. The cells were treated with either Compound 1 or rapamycin over a range of concentrations for 1 hour in 5% CO2 at 37° C. Compound 1 and rapamycin were used at the same concentrations as for the proliferation assay. As for the cell proliferation assay, a reference standard was included in the assay for PC3 cells and the coefficient of variation for assay of p-GSK3β(S9) was 37.8% (n=30), p-PRAS40(T246) was 27.8% (n=30) and for p4E-BP1(T46) was 13.5% (n=4). For three cell lines (HCT-116, MDA-MB-231 and HT29) in the assay for phosphorylation of GSK3β, PRAS40 and 4E-BP1, IGF-I stimulation (500 ng/mL, recombinant human IGF-I) for the last 10 min of incubation was used. The media was aspirated from the wells and the plate was placed on ice. Then 35 μL of Lysis Buffer was added to each well and incubated on ice for at least 30 minutes. During the incubation, the standard curve for each phosphoprotein was prepared. The standards provided were reconstituted and serial dilutions were prepared according to the manufacturer's instructions. At the end of the cell lysis step, […] of the lysate was transferred to a V-bottom plate and spun at 4° C. at 2000 rpm for 5 minutes. Both the 1× Luminex bead and 1× detector antibody solutions were prepared during this time. The 1× bead solution was vortexed and 25 μL was added into each well of a black round bottom plate. Then 50 μL of the 1× detector antibody was added to each well. Fifty microliters (50 μL) of the prepared standards were added to the designated wells. Then 25 μL of the assay diluent was added to each well designated for the compound-treated cell lysates. At the end of the spin, 25 μL of cell lysate was added to the corresponding wells of the black assay plate. The assay plate was covered with the white plate lid and incubated for 3 hours at room temperature on an orbital shaker.
(§4) Approximately 10-15 minutes prior to the end of the first incubation, the secondary antibody solution was prepared according to the vendor's protocol. Goat anti-rabbit R-phycoerythrin red fluorescent protein (RPE) supplied as a 10× concentrate was diluted to generate a 1× goat anti-rabbit RPE stock. The 96-well filter plate was pre-wet with 200 μL of 1× Working wash solution. At the end of the 3 hour incubation, a multichannel pipette was used to transfer the entire contents from each assay well into the wells of the filter plate. The liquid from the wells was removed by aspiration with the vacuum manifold. Then 200 μL of 1× Working wash solution was added into each well. The wash solution was aspirated using the vacuum manifold after 15-30 seconds. This wash step was repeated one time. The bottom of the plate was blotted on clean paper towels to remove residual liquid. […]

[2] = test system: p70S6K; experiment: Luminex multiplex assay, p70S6K phosphorylation in cell lysates
Text: as §2, §3, §4

[3] = test system: Phospho-GSK3β(S9); experiment: Luminex multiplex assay, Phospho-GSK3β(S9)
Text: as §1, §2, §3, §4

[4] = PC3 cell line, read-out: Luminex PRAS40
[5] = PC3 cell line, read-out: Luminex p70S6K
[6] = PC3 cell line, read-out: Luminex GSK-3β

Structure (SMILES)	IC50 [1, 4] [nM]	IC50 [2, 5] [nM]	IC50 [3, 6] [nM]	also measured
CO[C@H]1CC[C@H](N2CC(=O)Nc3ncc(-c4ccc(C(C)(C)O)nc4)nc32)C1 [C-24]	3660	843	> 5000	
Cc1nc(-c2nnc[nH]2)ccc1-c1cnc2c(n1)N(Cc1cccc(C#N)c1)C(=O)CN2 [C-92]	9	1	8	
CO[C@H]1CC[C@H](N2C(=O)CNc3ncc(-c4ccc(-c5nnc[nH]5)nc4C)nc32)C1 [C-56]	113	45	269	
CO[C@H]1CC[C@H](N2C(=O)CNc3ncc(-c4ccc(C(C)(C)O)nc4)nc32)C1 [C-79]	> 1500	981	> 1500	
COCCN1C(=O)CNc2ncc(-c3ccc(-c4nc[nH]n4)c(F)c3C)nc21 [C-19]	53	6	156	
CC(C)(O)c1ccc(-c2cnc3c(n2)N([C@H]2CC[C@@H](O)CC2)C(=O)CN3)cn1 [C-64]	349	61	299	
CCN1C(=O)CNc2ncc(-c3cccc4[nH]ncc34)nc21 [C-102]	> 1500	> 1500	> 1500	
CO[C@@H]1CC[C@H](N2CC(=O)Nc3ncc(-c4ccc(C(C)(C)O)nc4)nc32)C1 [C-28]	2360	452	> 5000	
O=C1CN(CCC2CCOCC2)c2nc(-c3ccc(-c4nnc[nH]4)c(F)c3)cnc2N1 [C-18]	27	4	37	
CCN1C(=O)CNc2ncc(-c3ccc4cn[nH]c4c3)nc21 [C-97]	> 1500	> 1500	> 1500	
O=C1CN(CCC2CCOCC2)c2nc(-c3cccc(-c4ncn[nH]4)c3)cnc2N1 [C-87]	> 1500	910	> 1500	
COCCN1CC(=O)Nc2ncc(-c3cnc(-c4ncn[nH]4)cc3C)nc21 [C-88]	23	3	8	
COC1CCC(CN2C(=O)CNc3ncc(-c4cnc(C(N)=O)cc4C)nc32)CC1 (stereo not drawn) [C-95]	308	29	234	
CC(C)(O)c1ccc(-c2cnc3c(n2)N(CCN2CCOCC2)C(=O)CN3)cn1 [C-70]	> 1500	540	700	
Cc1cc(-c2nnc[nH]2)ccc1-c1cnc2c(n1)N(Cc1ccccc1)C(=O)CN2 [C-31]	14	2	> 5000	
COC1CCC(CN2C(=O)CNc3ncc(-c4cnc(-c5nc[nH]n5)cc4C)nc32)CC1 (stereo not drawn) [C-91]	7	2	4	
CC(C)(O)c1ccc(-c2cnc3c(n2)N([C@H]2CC[C@H](O)CC2)C(=O)CN3)cn1 [C-65]	207	40	266	
COC1CCC(N2CC(=O)Nc3ncc(-c4cnc(C(N)=O)cc4C)nc32)CC1 (stereo not drawn) [C-82]	> 1500	467	> 1500	
CO[C@@H]1CC[C@@H](CN2CC(=O)Nc3ncc(-c4ccc(C(C)(C)O)nc4)nc32)C1 [C-25]	705	94	1780	
CO[C@H]1CC[C@H](N2CC(=O)Nc3ncc(-c4ccc(C(C)(C)O)nc4)nc32)CC1 [A-3, 6-(6-(2-hydroxypropan-2-yl)pyridin-3-yl)-4-((1r,4r)-4-methoxycyclohexyl)-3,4-dihydropyrazino[2,3-b]pyrazin-2(1H)-one]				IC50 ([1]; HCT116 cell line, IGF, read-out: Luminex PRAS40 (IGF)): 1370 nM; IC50 ([1]; U87MG cell line, read-out: Luminex PRAS40): 1160 nM; IC50 ([2]; HCT116 cell line, IGF, read-out: Luminex p70S6K (IGF)): 1820 nM; IC50 ([2]; U87MG cell line, read-out: Luminex p70S6K): 435 nM; IC50 ([3]; HCT116 cell line, IGF, read-out: Luminex GSK-3β (IGF)): 1290 nM; IC50 ([3]; U87MG cell line, read-out: Luminex GSK-3β): 1470 nM
Nc1ccc(-c2cnc3c(n2)N(CCC2CCOCC2)C(=O)CN3)cn1 [C-100]	564	15	608	

Now from value to compound, other results behind:

IC50 [1, 4] [nM]	IC50 [2, 5] [nM]	IC50 [3, 6] [nM]	Structure (SMILES)	also measured
> 50	6	> 50	O=C1CNc2ncc(-c3ccc(-c4nnc[nH]4)c(F)c3)nc2N1CCC1CCOCC1 [C-20]	
> 1500	> 1500	> 1500	O=C1CN(CCC2CCOCC2)c2nc(-c3cnc4nc[nH]c4c3)cnc2N1 [C-74]	
140	34	179	CC(C)(O)c1ccc(-c2cnc3c(n2)N(CCC2CCOCC2)C(=O)CN3)cn1 [C-7]	
> 1500	173	> 1500	O=C1CNc2ncc(-c3ccc4cn[nH]c4c3)nc2N1CCC1CCOCC1 [C-75]	
> 500	48	> 500	CO[C@H]1CC[C@H](N2CC(=O)Nc3ncc(-c4ccc(-c5nnc[nH]5)nc4C)nc32)C1 [C-50]	
688	116	627	CO[C@H]1CC[C@H](N2CC(=O)Nc3ncc(-c4ccc(C(C)(C)O)nc4)nc32)CC1 [C-8]	
724	133	841	CO[C@@H]1CC[C@H](N2C(=O)CNc3ncc(-c4ccc(C(C)(C)O)nc4)nc32)C1 [C-80]	
> 1500	825	> 1500	COC1CCC(N2C(=O)CNc3ncc(-c4ccc(C(C)(C)O)[n+]([O-])c4)nc32)CC1 (stereo not drawn) [C-98]	
21	3	33	O=C1CNc2ncc(-c3cnc4[nH]ccc4c3)nc2N1CCC1CCOCC1 [C-61]	
31	5	37	COC1CCC(N2CC(=O)Nc3ncc(-c4ccc(-c5nc[nH]n5)c(F)c4C)nc32)CC1 (stereo not drawn) [C-108]	
> 1500	310	939	COCCN1CC(=O)Nc2ncc(-c3cnc(C(N)=O)cc3C)nc21 [C-86]	
27	8	32	COCCN1C(=O)CNc2ncc(-c3ccc(-c4nnc[nH]4)c(F)c3)nc21 [C-27]	
99	28	126	COC1CCC(N2C(=O)CNc3ncc(-c4ccc(-c5nnc[nH]5)nc4C)nc32)C1 (stereo not drawn) [C-59]	
842	216	927	NC(=O)c1ccc(-c2cnc3c(n2)N(CCC2CCOCC2)C(=O)CN3)cc1 [C-63]	
228	25	341	O=C1CNc2ncc(-c3ccc4[nH]ccc4c3)nc2N1CCC1CCOCC1 [C-55]	
> 1500	> 1500	> 1500	O=c1[nH]c2ncc(-c3ccc(C4(O)COC4)nc3)nc2n1CCC1CCOCC1 [C-76]	
44	16	268	COC1CCC(CN2C(=O)CNc3ncc(-c4ccc(C(C)(C)O)nc4)nc32)CC1 (stereo not drawn) [C-42]	
524	201	214	COCCn1c(=O)[nH]c2ncc(-c3cnc4[nH]ccc4c3)nc21 [C-43]	
139	27	30	CC(C)(O)c1ccc(-c2cnc3c(n2)N(Cc2cccc(C#N)c2)C(=O)CN3)cn1 [C-85]	
> 1500	252	> 1500	COc1ccc(-c2cnc3c(n2)N(CCC2CCOCC2)C(=O)CN3)cn1 [C-105]	
106	< 1.5	168	COCCN1C(=O)CNc2ncc(-c3cnc4[nH]ccc4c3)nc21 [C-104]	
754	201	1170	CC(C)(O)c1ccc(-c2cnc3c(n2)N(CC2CCOCC2)CC(=O)N3)cc1 [C-11]	
